Where no end group is shown, it is not given here.
Test system: T84 monolayers
Excerpt: T84 cells are a human colonic epithelial cell line that differentiates and creates tight junctions. T84 cells are a model for colonic inflammation.

GGVLVQPG (SEQ ID NO:1) [Larazotide]
concentration dependence of the effect of protecting T84 monolayers from disruption by Streptococcus KS47 (FIG. 3): concentration dependent
protection of T84 monolayers from disruption by Shigella (T84 human colonic epithelial cell line, FIG. 1): does not protect

Reference: US20190358288A1, “COMPOSITIONS AND METHODS FOR TREATING OR PREVENTING ENVIRONMENTAL ENTEROPATHY” (INNOVATE BIOPHARMACEUTICALS, INC., priority 2017, published 2019)
